These are literature values, as cited in article PMC3736096 (Nature, 2013).

Consider `COc1ccc(S(=O)(=O)Nc2nc(-c3cccc([N+](=O)[O-])c3)c(CN3CCCCC3)s2)cc1OC` [JM6], for which the blood-brain barrier penetration entry is “do not appreciably penetrate the blood-brain barrier”.
Turning to `COc1ccc(S(=O)(=O)Nc2nc(-c3cccc([N+](=O)[O-])c3)cs2)cc1OC` [Ro 61-8048, 3,4-dimethoxy-[-N-4-(nitrophenyl)thiazol-2yl]-benzenesulfonamide], the blood-brain barrier penetration result is “do not appreciably penetrate the blood-brain barrier”.
